Assay results published in patent publication US12459922B2 (Gilead Sciences, Inc., priority 2022, dated 2025).

These molecules were tested on endogenous cellular STAT1 (phosphorylated at Tyr701) in NCI-H1373 cells (assay: Phospho-STAT1 (Tyr701) LANCE Ultra TR-FRET Detection Assay). Details: Homo sapiens, NCI-H1373, 48 h, phospho-STAT1 (Tyr701) induction, read-out: NH1373 pSTAT1 EC50.
Assay type: cell-based

| SMILES | EC50 [nM] |
| --- | --- |
| Nc1nc(-c2cc3ncn(CC[C@H]4CCC[C@@H]4Nc4cn[nH]c(=O)c4C(F)(F)F)c(=O)c3cc2F)cnc1C(F)(F)F [Example 465, 7-(6-amino-5-(trifluoromethyl)pyrazin-2-yl)-6-fluoro-3-(2-((1R,2S)-2-((6-oxo-5-(trifluoromethyl)-1,6-dihydropyridazin-4-yl)amino)cyclopentyl)ethyl)quinazolin-4(3H)-one] | 18 |
| O=c1[nH]ncc(N[C@H](CCCn2ccc3cc(-c4ncc(C(F)(F)F)cn4)c(F)cc3c2=O)CCOC(F)F)c1C(F)(F)F [Example 466, 2-[(4R)-6-(difluoromethoxy)-4-[[6-oxo-5-(trifluoromethyl)-1H-pyridazin-4-yl]amino]hexyl]-7-fluoro-6-[5-(trifluoromethyl)pyrimidin-2-yl]isoquinolin-1-one] | 6.52 |
| Nc1nc(-c2cc3ccn(CCC[C@H](CCOC(F)F)Nc4cn[nH]c(=O)c4C(F)(F)F)c(=O)c3cc2F)ncc1C(F)(F)F [Example 467, 6-[4-amino-5-(trifluoromethyl)pyrimidin-2-yl]-2-[(4R)-6-(difluoromethoxy)-4-[[6-oxo-5-(trifluoromethyl)-1H-pyridazin-4-yl]amino]hexyl]-7-fluoro-isoquinolin-1-one] | 4.13 |
| O=c1[nH]ncc(N[C@H](CCCn2cnc3cc(-c4ncc(C(F)F)cn4)c(F)cc3c2=O)C2CC2)c1C(F)(F)F [Example 468, 3-[(4R)-4-cyclopropyl-4-[[6-oxo-5-(trifluoromethyl)-1H-pyridazin-4-yl]amino]butyl]-7-[5-(difluoromethyl)pyrimidin-2-yl]-6-fluoro-quinazolin-4-one] | 42.5 |
| Nc1nc(-c2cc3ncn(CCC[C@@H](Nc4cn[nH]c(=O)c4C(F)(F)F)C4CC4)c(=O)c3cc2F)ncc1C(F)(F)F [Example 469, 7-[4-amino-5-(trifluoromethyl)pyrimidin-2-yl]-3-[(4R)-4-cyclopropyl-4-[[6-oxo-5-(trifluoromethyl)-1H-pyridazin-4-yl]amino]butyl]-6-fluoro-quinazolin-4-one] | 14.5 |
| O=c1[nH]ncc(N[C@H](CCCn2cnc3cc(-c4ncc(Cl)cn4)c(F)cc3c2=O)C2CC2)c1C(F)(F)F [Example 470, 7-(5-chloropyrimidin-2-yl)-3-[(4R)-4-cyclopropyl-4-[[6-oxo-5-(trifluoromethyl)-1H-pyridazin-4-yl]amino]butyl]-6-fluoro-quinazolin-4-one] | 39.3 |
| O=c1[nH]ncc(N[C@H](CCCn2cnc3cc(-c4ncc(C(F)(F)F)cn4)c(F)cc3c2=O)C2CC2)c1C(F)(F)F [Example 471, 3-[(4R)-4-cyclopropyl-4-[[6-oxo-5-(trifluoromethyl)-1H-pyridazin-4-yl]amino]butyl]-6-fluoro-7-[5-(trifluoromethyl)pyrimidin-2-yl]quinazolin-4-one] | 23.2 |
| Nc1nc(-c2cc3ncn(CCC[C@@H](Nc4cn[nH]c(=O)c4C(F)(F)F)C4CC4)c(=O)c3cc2F)ncc1OC(F)F [Example 472, 7-[4-amino-5-(difluoromethoxy)pyrimidin-2-yl]-3-[(4R)-4-cyclopropyl-4-[[6-oxo-5-(trifluoromethyl)-1H-pyridazin-4-yl]amino]butyl]-6-fluoro-quinazolin-4-one] | 51.6 |
| CN(C)C[C@@H](CCCn1ccc2cc(-c3ncc(C(F)(F)F)cn3)c(F)cc2c1=O)Nc1cn[nH]c(=O)c1C(F)(F)F [Example 473, 2-[(4R)-5-(dimethylamino)-4-[[6-oxo-5-(trifluoromethyl)-1H-pyridazin-4-yl]amino]pentyl]-7-fluoro-6-[5-(trifluoromethyl)pyrimidin-2-yl]isoquinolin-1-one] | 969 |
| Cc1nnc([C@@H](CCCn2ccc3cc(-c4ncc(C(F)(F)F)cn4)c(F)c(F)c3c2=O)Nc2cn[nH]c(=O)c2C(F)(F)F)o1 [Example 474, 7,8-difluoro-2-[(4R)-4-(5-methyl-1,3,4-oxadiazol-2-yl)-4-[[6-oxo-5-(trifluoromethyl)-1H-pyridazin-4-yl]amino]butyl]-6-[5-(trifluoromethyl)pyrimidin-2-yl]isoquinolin-1-one] | 14.8 |
| O=c1[nH]ncc(N[C@H](CCCn2ccc3cc(-c4ncc(C(F)(F)F)cn4)c(F)c(F)c3c2=O)c2nnc(C3CC3)o2)c1C(F)(F)F [Example 475, 2-[(4R)-4-(5-cyclopropyl-1,3,4-oxadiazol-2-yl)-4-[[6-oxo-5-(trifluoromethyl)-1H-pyridazin-4-yl]amino]butyl]-7,8-difluoro-6-[5-(trifluoromethyl)pyrimidin-2-yl]isoquinolin-1-one] | 10.6 |
| O=c1[nH]ncc(N[C@H](CCCn2ccc3cc(-c4ncc(C(F)(F)F)cn4)c(F)cc3c2=O)c2nnc(C3CC3)o2)c1C(F)(F)F [Example 476, 2-[(4R)-4-(5-cyclopropyl-1,3,4-oxadiazol-2-yl)-4-[[6-oxo-5-(trifluoromethyl)-1H-pyridazin-4-yl]amino]butyl]-7-fluoro-6-[5-(trifluoromethyl)pyrimidin-2-yl]isoquinolin-1-one] | 20.3 |
| O=c1[nH]ncc(N[C@H](CCCn2ccc3cc(-c4ncc(C(F)(F)F)cn4)c(F)cc3c2=O)c2nnc(C(F)F)o2)c1C(F)(F)F [Example 477, 2-[(4R)-4-[5-(difluoromethyl)-1,3,4-oxadiazol-2-yl]-4-[[6-oxo-5-(trifluoromethyl)-1H-pyridazin-4-yl]amino]butyl]-7-fluoro-6-[5-(trifluoromethyl)pyrimidin-2-yl]isoquinolin-1-one] | 18.4 |
| C[C@@H](CC(O)Cn1ccc2cc(-c3ncc(C(F)(F)F)cn3)c(F)cc2c1=O)Nc1cn[nH]c(=O)c1C(F)(F)F (stereo partly drawn) [Example 478, 7-fluoro-2-[(4S)-2-hydroxy-4-[[6-oxo-5-(trifluoromethyl)-1H-pyridazin-4-yl]amino]pentyl]-6-[5-(trifluoromethyl)pyrimidin-2-yl]isoquinolin-1-one] | 5.25 |
| O=c1[nH]ncc(N[C@H]2CCC[C@@H](Cn3cc(F)c4cc(-c5ncc(C(F)(F)F)cn5)c(F)cc4c3=O)C2)c1C(F)(F)F [Example 481, 4,7-difluoro-2-(((1R,3S)-3-((6-oxo-5-(trifluoromethyl)-1,6-dihydropyridazin-4-yl)amino)cyclohexyl)methyl)-6-(5-(trifluoromethyl)pyrimidin-2-yl)isoquinolin-1(2H)-one] | 3.24 |
| O=c1[nH]ncc(N[C@H]2CCC[C@@H](Cn3cc(F)c4cc(-c5ncc(C(F)F)cn5)c(F)cc4c3=O)C2)c1C(F)(F)F [Example 482, 6-(5-(difluoromethyl)pyrimidin-2-yl)-4,7-difluoro-2-(((1R,3S)-3-((6-oxo-5-(trifluoromethyl)-1,6-dihydropyridazin-4-yl)amino)cyclohexyl)methyl)isoquinolin-1(2H)-one] | 1.94 |
| N#Cc1cn(C[C@@H]2CCC[C@H](Nc3cn[nH]c(=O)c3C(F)(F)F)C2)c(=O)c2cc(F)c(-c3ncc(C(F)(F)F)cn3)cc12 [Example 483, 7-fluoro-1-oxo-2-(((1R,3S)-3-((6-oxo-5-(trifluoromethyl)-1,6-dihydropyridazin-4-yl)amino)cyclohexyl)methyl)-6-(5-(trifluoromethyl)pyrimidin-2-yl)-1,2-dihydroisoquinoline-4-carbonitrile] | 4.71 |
| Cc1cn(C[C@@H]2CCC[C@H](Nc3cn[nH]c(=O)c3C(F)(F)F)C2)c(=O)c2cc(F)c(-c3ncc(C(F)(F)F)cn3)cc12 [Example 485, 7-fluoro-4-methyl-2-(((1R,3S)-3-((6-oxo-5-(trifluoromethyl)-1,6-dihydropyridazin-4-yl)amino)cyclohexyl)methyl)-6-(5-(trifluoromethyl)pyrimidin-2-yl)isoquinolin-1(2H)-one] | 5.46 |
| Nc1cn(C[C@@H]2CCC[C@H](Nc3cn[nH]c(=O)c3C(F)(F)F)C2)c(=O)c2cc(F)c(-c3ncc(C(F)(F)F)cn3)cc12 [Example 486, 4-amino-7-fluoro-2-(((1R,3S)-3-((6-oxo-5-(trifluoromethyl)-1,6-dihydropyridazin-4-yl)amino)cyclohexyl)methyl)-6-(5-(trifluoromethyl)pyrimidin-2-yl)isoquinolin-1(2H)-one] | 95.8 |
| O=c1[nH]ncc(N[C@H]2CCC[C@@H](Cn3cnc4cc(-c5nc6ccccn6n5)c(F)cc4c3=O)C2)c1C(F)(F)F [Example 487] | 0.51 |
| O=c1[nH]ncc(N[C@H]2CCC[C@@H](Cn3ccc4cc(-c5nc6ccccn6n5)c(F)cc4c3=O)C2)c1C(F)(F)F [Example 488, 6-([1,2,4]triazolo[1,5-a]pyridin-2-yl)-7-fluoro-2-(((1R,3S)-3-((6-oxo-5-(trifluoromethyl)-1,6-dihydropyridazin-4-yl)amino)cyclohexyl)methyl)isoquinolin-1(2H)-one] | 0.51 |
| O=c1[nH]ncc(N[C@H](CCCn2ccc3cc(-c4nc5ccccn5n4)c(F)cc3c2=O)COC(F)F)c1C(F)(F)F [Example 489, (R)-6-([1,2,4]triazolo[1,5-a]pyridin-2-yl)-2-(5-(difluoromethoxy)-4-((6-oxo-5-(trifluoromethyl)-1,6-dihydropyridazin-4-yl)amino)pentyl)-7-fluoroisoquinolin-1(2H)-one] | 0.51 |
| O=c1[nH]ncc(N[C@H](CCCn2cnc3cc(-c4nc5ccccn5n4)c(F)cc3c2=O)COC(F)F)c1C(F)(F)F [Example 490, (R)-7-([1,2,4]triazolo[1,5-a]pyridin-2-yl)-3-(5-(difluoromethoxy)-4-((6-oxo-5-(trifluoromethyl)-1,6-dihydropyridazin-4-yl)amino)pentyl)-6-fluoroquinazolin-4(3H)-one] | 1 |
| Cn1nc(-c2cc3ccn(C[C@@H]4CCC[C@H](Nc5cn[nH]c(=O)c5C(F)(F)F)C4)c(=O)c3cc2F)cc1C(F)(F)F [Example 491, 7-fluoro-6-[1-methyl-5-(trifluoromethyl)pyrazol-3-yl]-2-[[(1R,3S)-3-[[6-oxo-5-(trifluoromethyl)-1H-pyridazin-4-yl]amino]cyclohexyl]methyl]isoquinolin-1-one] | 50.5 |
| COc1cnc(-c2cc3ccn(C[C@@H]4CCC[C@H](Nc5cn[nH]c(=O)c5C(F)(F)F)C4)c(=O)c3cc2F)nc1 [Example 492, 7-fluoro-6-(5-methoxypyrimidin-2-yl)-2-[[(1R,3S)-3-[[6-oxo-5-(trifluoromethyl)-1H-pyridazin-4-yl]amino]cyclohexyl]methyl]isoquinolin-1-one] | 7 |
